Results taken from patent US20090117598A1, “Method for identifying compounds that affect a transport of a protein through a membrane trafficking pathway” (priority 2004, published 2009).

Key:
Type in all cases: cell-based
[1] = tested on: Hela cells; assay: fluid phase endocytosis assay (BODIPY-FL dextran internalization); details: for number of endosomes relative to the control: BODIPY-FL dextran 20 min at 37° C., FIG. 3b; for integrated fluorescence intensity per cell relative to the control: data not shown
Procedure: For the fluid phase endocytosis assay, Hela cells in 96 well plates were washed and incubated for 120 min with the compounds in serum free buffered medium under tissue culture conditions. The medium was then replaced with serum-free buffered medium supplemented with 1 mg/ml BODIPY-FL-Dextran and 10 μM Syto60. Cells were incubated for 20 min at 37° C., then placed on a cooled block and washed extensively with ice cold phosphate buffered saline 10% w/v bovine serum albumin (Serva; Heidelberg, Germany). Plates were imaged by the Opera using 488/633 nm excitation, 3 μm focus height above the coverslip, 1000 ms or 500 ms exposure and 510 nm (50 nm bandpass) or 680 (50 nm bandpass) filters, respectively.
Fluid phase endocytosis was measured using custom written scripts in Metamorph. Cells were identified in the 633 nm excitation SYTO60 image, the nuclei segmented and cells counted. A mask was generated from this image and used to identify cells in overlay of the 488 nm BODIPY-FL dextran image, to create regions of interest around the cell borders and excise them from the image. Background was deducted from the processed BODIPY-FL dextran image that was thresholded to identify endosomes as individual regions of interest. Image pairs with less than 300 cells per field of view were rejected.
A fluid phase endocytosis assay measured the internalization of green fluorescent 40 kDa BODIPY-FI dextran. Dextrans are ideal endocytotic markers for labelling endosomes and macropinosomes. In this assay, endosomes labelled with fluorescent dextran by internalization were readily identified with the Opera instrument (FIG. 2b). Dextran internalization satisfied all the classical prerequisites for an internalization assay—it was temperature dependent, arrested at 4° C. (FIG. 2a), and required a source of energy in the medium. Endocytosis was quantified by analysis of paired images of cells labelled with green dextran and the SYTO60 nuclear counter stain. The analysis was validated on cells that had internalized green fluorescent dextran for 20 min at 37° C. or at 4° C. (FIG. 2c).
To identify compounds affecting GPCR internalization and not affecting housekeeping endocytosis, the kinase and phosphatase inhibitor collection was screened against the fluid phase endocytosis assay (FIG. 3b). The effect of the compounds was evaluated. Four compounds (staurosporine, tyrphostin 9, AG-879, GF 109203×) were identified that reduced the number of endosomes (FIG. 3b) and the integrated intensity per cell relative to the control (data not shown).

[2] = tested on: ETAR internalization and fluid phase endocytosis; assay: Overlap of the ETAR internalization and the fluid phase endocytosis screen; details: FIG. 3b
Text: Overlap of the ETAR internalization and the fluid phase endocytosis screen was used to generate differential information from the two assays.

[3] = tested on: human endothelin A receptor; assay: ETAR (GPCR) internalization assay, ETAR-EGFP in stably transfected HEK 293 cells; details: for receptor trafficking morphology observed (visual screen of primary hits): stimulation with 40 nM endothelin-1, FIG. 4
Text: A human endothelin A receptor cDNA clone in pCDNA3.1(−) (Invitrogen Carlsbad, USA) was excised via KpnI/HindIII and fused to the egfp coding sequence of the pEGFP-N1 vector (Clontech, Palo Alto USA) by splice overlap PCR using specific primers. The amplified fragment was digested via KpnI/EcoRV and ligated in the pCDNA3.1(−) vector digested with the same combination of restriction enzymes. The resulting pETAR-EGFP DNA was cloned, checked by sequencing and used for transfection of HEK 293 cells using standard protocols. A recombinant clone was obtained through several cycles of genetecin selection and limiting dilutions. For screening, cells were passed onto coverslip bottomed 96 well plates (Greiner; Longwood, USA, or Whatman; Brentford, UK) at a density of 4·10^3 cells/well for Hela and 2·10^4 cells/well for HEK293 cells, 48 hours in advance.
For the GPCR internalization assay, recombinant HEK cells grown were plated in 96 well plates and incubated overnight in DMEM/F12 containing 10% FBS. The plates were washed and the cells incubated for 120 min under tissue culture conditions with the compounds in 1% serum medium. The compound solutions were then exchanged for a solution with the same compound concentration and supplemented with 40 nM endothelin-1 and 10 μM Syto60. Cells were incubated for 120 min at 22° C. Plates were imaged by the Opera using 488/633 nm excitation, 3 μm focus height above the coverslip, 250 ms or 500 ms exposure and 510 nm (50 nm bandpass) or 680 (50 nm bandpass) filters, respectively. Typically, 5 image pairs (at 488 and 633 nm excitation) per well were acquired.
GPCR translocation was evaluated using scripts within the Acapella script player software environment of the Opera. The script measured translocation of the ETAR-EGFP fusion protein from the plasma membrane into recycling endosomes. Cells were first located in the 633 nm excitation SYTO60 image. Red fluorescent nuclei were identified by thresholding and edge seeking and then segmented to create a mask. The number of cells was counted and the nuclei mask used to generate a new cytoplasmic mask. Subsequently, each cell was individually segmented and cells with at least one bright recycling endosome were identified. Image analysis was performed on- and offline and analyses were rejected if the cell count was beneath 100 per field of view.
The endothelin A GPCR internalization screen was carried out using a stably transfected HEK 293 cell line expressing a fusion protein between the ETAR and a c-terminal copy of the enhanced green fluorescent protein. […] This internalization event was used as the basis for measuring trafficking of the receptor by image analysis. Serum deprived cells were stimulated with endothelin-1 at several concentrations and simultaneously counterstained with DRAQ5 or SYTO60, which are long wavelength excitable DNA and nucleic acid stains, respectively. The cells were stimulated for 120 min at 22-23° C., then imaged on the Opera automated confocal imaging reader. Images of the GFP and red counterstain fluorescence were automatically recorded and used to determine the number of cells where internalization of the receptor had occurred.
Cells were pre-treated with 10 μM compound before stimulation with 40 nM endothelin-1 to ensure a uniform and robust internalization response for the receptor.

[4] = secondary screen 0.1 μM to 50 μM, FIG. 5

| SMILES | number of endosomes relative to the control [1] | integrated fluorescence intensity per cell relative to the control ([1]; BODIPY-FL dextran) | comparison of the responses in the ETAR internalization and fluid phase endocytosis assays [2] | receptor trafficking morphology observed (visual screen of primary hits) ([3]; 10 μM compound) | further results |
| --- | --- | --- | --- | --- | --- |
| CC(C)(C)c1cc(/C=C(\C#N)C(N)=S)cc(C(C)(C)C)c1O [AG-879] | reduced | reduced |  |  |  |
| CN(C)CCCn1cc(C2=C(c3c[nH]c4ccccc34)C(=O)NC2=O)c2ccccc21 [GF 109203X] | reduced | reduced | congruent in both assays |  |  |
| O=C1Nc2ccc(I)cc2/C1=C/c1cc(Br)c(O)c(Br)c1 [GW 5074] |  |  | large difference |  | hit classification in the primary screen ([3]; 10 μM compound, 40 nM endothelin-1, FIG. 3b): partial hit; concentration at which effect on GPCR internalization was seen (secondary screen) [3, 4]: 50 µM; effect on accumulation of the receptor in recycling endosomes ([3]; versus untreated endothelin-1 stimulated control cells, FIG. 4d): delayed accumulation of the receptor in the recycling endosomes |
| O=S(=O)(NCCNC/C=C/c1ccc(Br)cc1)c1cccc2cnccc12 [H-89] |  |  | large difference | enhanced accumulation in the recycling endosome |  |
| Cn1cc(C2=C(c3cn(CCCSC(=N)N)c4ccccc34)C(=O)NC2=O)c2ccccc21 [Ro 31-8220] |  |  | large difference | arrest of the receptor at the plasma membrane |  |
| CC[C@H](C)[C@H](NC(=O)[C@H](CC(=O)O)NC(=O)[C@H](CC(C)C)NC(=O)[C@H](Cc1c[nH]cn1)NC(=O)[C@@H]1CSSC[C@H](N)C(=O)N[C@@H](CO)C(=O)N[C@H]2CSSC[C@H](NC(=O)[C@H](CCC(=O)O)NC(=O)[C@H](CCCCN)NC(=O)[C@H](CC(=O)O)NC(=O)[C@H](CCSC)NC(=O)[C@H](CC(C)C)NC(=O)[C@H](CO)NC(=O)[C@H](CO)NC2=O)C(=O)N[C@@H](C(C)C)C(=O)N[C@@H](Cc2ccc(O)cc2)C(=O)N[C@@H](Cc2ccccc2)C(=O)N1)C(=O)N[C@H](C(=O)N[C@@H](Cc1c[nH]c2ccccc12)C(=O)O)[C@@H](C)CC [endothelin-1] |  |  |  |  | ETAR localization after endothelin-1 stimulation [3]: internalization of the fluorescent ETAR into an intracellular peri-centriolar compartment; EC50 ([3]; read-out: EC50 of endothelin stimulation (ETAR-EGFP internalization)): 3.4 nM |
| COC(=O)/C=C/c1cc(O)ccc1O [erbstatin analogue] |  |  | large difference | arrest of the receptor in small vesicular bodies |  |
| O=c1c(-c2ccc(O)cc2)coc2cc(O)cc(O)c12 [genistein] | increased | significantly increased |  |  |  |
| CN[C@@H]1C[C@H]2O[C@@](C)([C@@H]1OC)n1c3ccccc3c3c4c(c5c6ccccc6n2c5c31)C(=O)NC4 [staurosporine] | reduced | reduced | congruent in both assays | arrest of the receptor at the plasma membrane | effective concentration for blocking GPCR internalization (secondary screen) [3, 4]: 100 nM; endosomal pixel intensity ([1]; BODIPY-FL dextran): slightly increased |
| CC(C)(C)c1cc(C=C(C#N)C#N)cc(C(C)(C)C)c1O [tyrphostin 9] | reduced | reduced |  |  |  |
